Measurements as given in PubChem BioAssay (NCI).
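Where inhibition never reached the appropriate level, the endpoint shown equals the highest concentration tested. Otherwise, values were interpolated linearly from a five-concentration, 48-hour dose response in 96-well plates. At the GI50, growth is halved. The concentration for full growth arrest is given as TGI.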

Key:
Test in all cases: NCI-60 cell line screen, 48 h
[1] = system: 786-0 renal
[2] = system: A498 renal
[3] = system: A549 NSCLC
[4] = system: ACHN renal
[5] = system: BT-549 breast
[6] = system: CAKI-1 renal
[7] = system: CCRF-CEM leukemia
[8] = system: COLO 205 colon
[9] = system: DU-145 prostate
[10] = system: EKVX NSCLC
[11] = system: HCC-2998 colon
[12] = system: HCT-116 colon
[13] = system: HCT-15 colon
[14] = system: HL-60(TB) leukemia
[15] = system: HOP-62 NSCLC
[16] = system: HOP-92 NSCLC
[17] = system: HS 578T breast
[18] = system: HT29 colon
[19] = system: IGROV1 ovarian
[20] = system: KM12 colon
[21] = system: LOX IMVI melanoma
[22] = system: M14 melanoma
[23] = system: MALME-3M melanoma
[24] = system: MCF7 breast
[25] = system: MDA-MB-231 breast
[26] = system: MDA-MB-435
[27] = system: MOLT-4 leukemia
[28] = system: NCI-H226 lung
[29] = system: NCI-H460 lung
[30] = system: NCI-H522 lung
[31] = system: NCI/ADR-RES ovarian
[32] = system: OVCAR-3 ovarian
[33] = system: OVCAR-4 ovarian
[34] = system: OVCAR-5 ovarian
[35] = system: OVCAR-8 ovarian
[36] = system: PC-3 prostate
[37] = system: RPMI-8226 leukemia
[38] = system: RXF 393 renal
[39] = system: SF-268 CNS
[40] = system: SF-295 CNS
[41] = system: SF-539 CNS
[42] = system: SK-MEL-2 melanoma
[43] = system: SK-MEL-28 melanoma
[44] = system: SK-OV-3 ovarian
[45] = system: SN12C renal
[46] = system: SNB-19 CNS
[47] = system: SNB-75 CNS
[48] = system: SR leukemia
[49] = system: SW-620 colon
[50] = system: T-47D breast
[51] = system: TK-10 renal
[52] = system: U251 CNS
[53] = system: UACC-257 melanoma
[54] = system: UACC-62 melanoma
[55] = system: UO-31 renal

In the case of `CN(C(=O)CNC(=O)/C=C/c1cccc(Cl)c1)C1CCS(=O)(=O)CC1`, the GI50 [1] is reported as 4.57 µM, the TGI [1] is reported as > 100 µM and the GI50 [2] is reported as 0.421 µM. The TGI [2] was > 100 µM, the GI50 [3] was > 100 µM and the TGI [3] was > 100 µM. For the same molecule, the GI50 [4] was 46.4 µM, the TGI [4] was > 100 µM and the GI50 [5] was 6.09 µM. For the same molecule, the TGI [5] was > 100 µM, the GI50 [6] was 3.78 µM and the TGI [6] was > 100 µM. For the same molecule, the GI50 [7] was > 100 µM, the TGI [7] was > 100 µM and the GI50 [8] was 1.1 µM. The TGI [8] was > 100 µM, the GI50 [9] was 0.47 µM and the TGI [9] was > 100 µM. For the same molecule, the GI50 [10] was 34.3 µM, the TGI [10] was > 100 µM and the GI50 [11] was 0.663 µM. For the same molecule, the TGI [11] was > 100 µM, the GI50 [12] was 1.52 µM and the TGI [12] was > 100 µM. For the same molecule, the GI50 [13] was 0.819 µM, the TGI [13] was > 100 µM and the GI50 [14] was 2.07 µM. For the same molecule, the TGI [14] was > 100 µM, the GI50 [15] was 11 µM and the TGI [15] was > 100 µM. The GI50 [16] was > 100 µM, the TGI [16] was > 100 µM and the GI50 [17] was 90.4 µM. For the same molecule, the TGI [17] was > 100 µM, the GI50 [18] was 0.889 µM and the TGI [18] was > 100 µM. The GI50 [19] was 3.05 µM, the TGI [19] was > 100 µM and the GI50 [20] was 7.99 µM. For the same molecule, the TGI [20] was > 100 µM, the GI50 [21] was 0.7 µM and the TGI [21] was > 100 µM. The GI50 [22] was 1.48 µM, the TGI [22] was > 100 µM and the GI50 [23] was 3.45 µM. The TGI [23] was > 100 µM, the GI50 [24] was 1.03 µM and the TGI [24] was > 100 µM. The GI50 [25] was 0.525 µM, the TGI [25] was > 100 µM and the GI50 [26] was 2.1 µM. The TGI [26] was > 100 µM, the GI50 [27] was 2.12 µM and the TGI [27] was > 100 µM. The GI50 [28] was 1.02 µM, the TGI [28] was > 100 µM and the GI50 [29] was 13.9 µM. For the same molecule, the TGI [29] was > 100 µM, the GI50 [30] was 1.17 µM and the TGI [30] was > 100 µM. The GI50 [31] was > 100 µM, the TGI [31] was > 100 µM and the GI50 [32] was 1.21 µM. The TGI [32] was > 100 µM, the GI50 [33] was 5.9 µM and the TGI [33] was > 100 µM. The GI50 [34] was 8.5 µM, the TGI [34] was > 100 µM and the GI50 [35] was > 100 µM. For the same molecule, the TGI [35] was > 100 µM, the GI50 [36] was > 100 µM and the TGI [36] was > 100 µM. For the same molecule, the GI50 [37] was 14.8 µM, the TGI [37] was > 100 µM and the GI50 [38] was 6.47 µM. The TGI [38] was 40.7 µM, the GI50 [39] was 65.1 µM and the TGI [39] was > 100 µM. The GI50 [40] was 5.03 µM, the TGI [40] was > 100 µM and the GI50 [41] was 7.28 µM. The TGI [41] was > 100 µM, the GI50 [42] was 15.6 µM and the TGI [42] was > 100 µM. For the same molecule, the GI50 [43] was 59.3 µM, the TGI [43] was > 100 µM and the GI50 [44] was 18.2 µM. The TGI [44] was > 100 µM, the GI50 [45] was 2.99 µM and the TGI [45] was > 100 µM. The GI50 [46] was > 100 µM, the TGI [46] was > 100 µM and the GI50 [47] was 3.02 µM. The TGI [47] was > 100 µM, the GI50 [48] was > 100 µM and the TGI [48] was > 100 µM. The GI50 [49] was 3.51 µM, the TGI [49] was > 100 µM and the GI50 [50] was 7.36 µM. The TGI [50] was > 100 µM, the GI50 [51] was 2.27 µM and the TGI [51] was > 100 µM. The GI50 [52] was 39.5 µM, the TGI [52] was > 100 µM and the GI50 [53] was > 100 µM. For the same molecule, the TGI [53] was > 100 µM, the GI50 [54] was 0.986 µM and the TGI [54] was > 100 µM. For the same molecule, the GI50 [55] was 47 µM and the TGI [55] was > 100 µM.
